Results on 20 compounds are retold here after US9145391B2, “Bipyridylaminopyridines as Syk inhibitors” (Merck Sharp & Dohme Corp., priority 2011, dated 2015).

The term IC50 denotes the point on the concentration scale where inhibition reaches its midpoint.

A value given as a limit tells only on which side of the number the result lay.

This assay addresses recombinant human GST-Syk (Homo sapiens (Human), UniProt P43405). Put plainly: Homogeneous Time-Resolved Fluorescence (HTRF) assay for the recombinant human Syk enzyme. It is filed as biochemical. Conditions: recombinant human GST-Syk 5 pM, ATP 25 μM, read-out: rhSyk IC50. As for the experimental part:
Syk inhibition may be determined using the following assay protocol: Homogeneous Time-Resolved Fluorescence (HTRF) Assay for the Recombinant Human Syk Enzyme: A recombinant GST-hSyk fusion protein was used to measure potency of compounds to inhibit human Syk activity. […] To initiate the reaction the biotinylated substrate peptide (250 nM final concentration) that contains the phosphorylation site for Syk was added with magnesium (5 mM final concentration) and ATP (25 μM final concentration). […] Final volume of the quenching solution was 10 μL.
A general note: TR-FRET usually uses a lanthanide donor and a delayed reading to cut background.
Take `CCCCCCOC(=O)[C@H]1CC[C@H](C(C)(O)c2ccc(-c3cc(C)cc(Nc4cc(C(F)F)ccn4)n3)cn2)CC1` (single isomer, unassigned) [Example 19-9, hexyl trans-4-[(1R or 1S)-1-(6-{[4-(difluoromethyl)pyridin-2-yl]amino}-4-methyl-2,3′-bipyridin-6′-yl)-1-hydroxyethyl] cyclohexanecarboxylate]: the IC50 stood at 190 nM.

Take `CCCCCCCCOC(=O)[C@H]1CC[C@H](C(C)(O)c2ccc(-c3cc(C)cc(Nc4cc(C(F)F)ccn4)n3)cn2)CC1` (single isomer, unassigned) [Example 19-11, octyl trans-4-[(1R or 1S)-1-(6-{[4-(difluoromethyl)pyridin-2-yl]amino}-4-methyl-2,3′-bipyridin-6′-yl)-1-hydroxyethyl] cyclohexanecarboxylate]: the half-maximal inhibitory concentration (IC50) is above 10000 nM. Next, `Cc1cc(Nc2cc(C(F)F)ccn2)nc(-c2ccc(C(C)(O)[C@H]3CC[C@H](C(=O)OC4CCCCC4)CC3)nc2)c1` (single isomer, unassigned) [Example 19-12, cyclohexyl trans-4-[(1R or 1S)-1-(6-{[4-(difluoromethyl)pyridin-2-yl]amino}-4-methyl-2,3′-bipyridin-6′-yl)-1-hydroxyethyl] cyclohexanecarboxylate]: 47 nM.

With `Cc1cc(Nc2cc(C(F)F)ccn2)nc(-c2ccc(C(C)(O)[C@H]3CC[C@H](C(=O)OC4CCOCC4)CC3)nc2)c1` (single isomer, unassigned) [Example 19-13, tetrahydro-2H-pyran-4-yl trans-4-[(1R or 1S)-1-(6-{[4-(difluoromethyl)pyridin-2-yl]amino}-4-methyl-2,3′-bipyridin-6′-yl)-1-hydroxyethyl] cyclohexanecarboxylate], the IC50 was 8.7 nM. Next, `Cc1cc(Nc2cc(C(F)F)ccn2)nc(-c2ccc(C(C)(O)[C@H]3CC[C@H](C(=O)OCC4CCCCC4)CC3)nc2)c1` (single isomer, unassigned) [Example 19-14, cyclohexylmethyl trans-4-[(1R or 1S)-1-(6-{[4-(difluoromethyl)pyridin-2-yl]amino}-4-methyl-2,3′-bipyridin-6′-yl)-1-hydroxyethyl] cyclohexanecarboxylate]: 210 nM; `CCOCCOCCOC(=O)[C@H]1CC[C@H](C(C)(O)c2ccc(-c3cc(C)cc(Nc4cc(C(F)F)ccn4)n3)cn2)CC1` (single isomer, unassigned) [Example 19-16, 2-(2-ethoxyethoxy)ethyl trans-4-[(1R or 1S)-1-(6-{[4-(difluoromethyl)pyridin-2-yl]amino}-4-methyl-2,3′-bipyridin-6′-yl)-1-hydroxyethyl] cyclohexanecarboxylate]: 12 nM; `COC(=O)COC(=O)[C@H]1CC[C@H](C(C)(O)c2ccc(-c3cc(C)cc(Nc4cc(C(F)F)ccn4)n3)cn2)CC1` (single isomer, unassigned) [Example 19-17, 2-methoxy-2-oxoethyl trans-4-[(1R or 1S)-1-(6-{[4-(difluoromethyl)pyridin-2-yl]amino}-4-methyl-2,3′-bipyridin-6′-yl)-1-hydroxyethyl] cyclohexanecarboxylate]: 4.3 nM. To `Cc1cc(Nc2cc(C(F)F)ccn2)nc(-c2ccc(C(C)(O)[C@H]3CC[C@H](C(=O)OCCN(C)C)CC3)nc2)c1` (single isomer, unassigned) [Example 19-20, 2-(dimethylamino)ethyl trans-4-[(1R or 1S)-1-(6-{[4-difluoromethyl)pyridin-2-yl]amino}-4-methyl-2,3′-bipyridin-6′-yl)-1-hydroxyethyl] cyclohexanecarboxylate] belongs 2.3 nM. Regarding `Cc1cc(Nc2cc(C(F)F)ccn2)nc(-c2ccc(C(C)(O)[C@H]3CC[C@H](C(=O)OCc4oc(=O)oc4C)CC3)nc2)c1` (single isomer, unassigned) [Example 19-21, (5-methyl-2-oxo-1,3-dioxol-4-yl)methyl trans-4-[(1R or 1S)-1-(6-{[4-(difluoromethyl)pyridin-2-yl]amino}-4-methyl-2,3′-bipyridin-6′-yl)-1-hydroxyethyl] cyclohexanecarboxylate], the IC50 was found to be 5.2 nM.

Consider `Cc1cc(Nc2cc(C(F)F)ccn2)nc(-c2ccc(C(C)(O)[C@H]3CC[C@H](C(=O)OCOC(=O)OC(C)C)CC3)nc2)c1` (single isomer, unassigned) [Example 20-1, {[(propan-2-yloxy)carbonyl]oxy}methyl trans-4-[(1R or 1S)-1-(6-{[4-(difluoromethyl)pyridin-2-yl]amino}-4-methyl-2,3′-bipyridin-6′-yl)-1-hydroxyethyl] cyclohexanecarboxylate], for which the 50% inhibitory concentration (IC50) was 19 nM. Next, `CCOC(=O)OC(C)OC(=O)[C@H]1CC[C@H](C(C)(O)c2ccc(-c3cc(C)cc(Nc4cc(C(F)F)ccn4)n3)cn2)CC1` (single isomer, unassigned) [Example 20-2, 1-[(ethoxycarbonyl)oxy]ethyl trans-4-[(1R or 1S)-1-(6-{[4-(difluoromethyl)pyridin-2-yl]amino}-4-methyl-2,3′-bipyridin-6′-yl)-1-hydroxyethyl] cyclohexanecarboxylate]: 69 nM. Turning to `Cc1cc(Nc2cc(C(F)F)ccn2)nc(-c2ccc(C(C)(O)[C@H]3CC[C@H](C(=O)OC(C)OC(=O)OC(C)C)CC3)nc2)c1` (single isomer, unassigned) [Example 20-3, 1-{[(propan-2-yloxy)carbonyl]oxy}ethyl trans-4-[(1R or 1S)-1-(6-{[4-(difluoromethyl)pyridin-2-yl]amino}-4-methyl-2,3′-bipyridin-6′-yl)-1-hydroxyethyl] cyclohexanecarboxylate], the IC50 is 110 nM. Turning to `Cc1cc(Nc2cc(C(F)F)ccn2)nc(-c2ccc(C(C)(O)[C@H]3CC[C@H](C(=O)OC(C)OC(=O)OC4CCCCC4)CC3)nc2)c1` (single isomer, unassigned) [Example 20-4, 1-{[(cyclohexyloxy)carbonyl]oxy}ethyl trans-4-[(1R or 1S)-1-(6-{[4-(difluoromethyl)pyridin-2-yl]amino}-4-methyl-2,3′-bipyridin-6′-yl)-1-hydroxyethyl] cyclohexanecarboxylate], the half-maximal inhibitory concentration (IC50) turned out to be 510 nM.

For the compound `CCOC(=O)OC(C)OC(=O)[C@H]1CC[C@H](C(C)(O)c2ccc(-c3cc(C)cc(Nc4cc(C(F)F)ccn4)n3)cn2)CC1` (single isomer, unassigned) [Example 20-5, 1-[(ethoxycarbonyl)oxy] ethyl trans-4-[(1R or 1S)-1-(6-{[4-(difluoromethyl)pyridin-2-yl]amino}-4-methyl-2,3′-bipyridin-6′-yl)-1-hydroxyethyl] cyclohexanecarboxylate], the IC50 was 32 nM. Take `CCOC(=O)OC(C)OC(=O)[C@H]1CC[C@H](C(C)(O)c2ccc(-c3cc(C)cc(Nc4cc(C(F)F)ccn4)n3)cn2)CC1` (single isomer, unassigned) [Example 20-6, 1-[(ethoxycarbonyl)oxy]ethyl trans-4-[(1R or 1S)-1-(6-{[4-(difluoromethyl)pyridin-2-yl]amino}-4-methyl-2,3′-bipyridin-6′-yl)-1-hydroxyethyl] cyclohexanecarboxylate]: the half-maximal inhibitory concentration (IC50) amounted to 21 nM. As to `Cc1cc(Nc2cc(C(F)F)ccn2)nc(-c2ccc(C(C)(O)[C@H]3CC[C@H](C(=O)OC(C)OC(=O)OC(C)C)CC3)nc2)c1` (single isomer, unassigned) [Example 20-7, 1-{[(propan-2-yloxy)carbonyl]oxy}ethyl trans-4-[(1R or 1S)-1-{6-{[4-(difluoromethyl)pyridin-2-yl]amino}-4-methyl-2,3′-bipyridin-6′-yl)-1-hydroxyethyl] cyclohexanecarboxylate], the concentration for half-maximal inhibition (IC50) turned out to be 100 nM.

As to `Cc1cc(Nc2cc(C(F)F)ccn2)nc(-c2ccc(C(C)(O)[C@H]3CC[C@H](C(=O)OC(C)OC(=O)OC(C)C)CC3)nc2)c1` (single isomer, unassigned) [Example 20-8, 1-{[(propan-2-yloxy)carbonyl]oxy}ethyl trans-4-[(1R or 1S)-1-(6-{[4-(difluoromethyl)pyridin-2-yl]amino}-4-methyl-2,3′-bipyridin-6′-yl)-1-hydroxyethyl] cyclohexanecarboxylate], the IC50 stood at 50 nM. `Cc1cc(Nc2cc(C(F)F)ccn2)nc(-c2ccc(C(C)(O)[C@H]3CC[C@H](C(=O)OC(C)OC(=O)OC4CCCCC4)CC3)nc2)c1` (single isomer, unassigned) [Example 20-9, 1-{[(cyclohexyloxy)carbonyl]oxy}ethyl trans-4-[(1R or 1S)-1-(6-{[4-(difluoromethyl)pyridin-2-yl]amino}-4-methyl-2,3′-bipyridin-6′-yl)-1-hydroxyethyl] cyclohexanecarboxylate]: the IC50 came to 140 nM. Next, `Cc1cc(Nc2cc(C(F)F)ccn2)nc(-c2ccc(C(C)(O)[C@H]3CC[C@H](C(=O)OC(C)OC(=O)OC4CCCCC4)CC3)nc2)c1` (single isomer, unassigned) [Example 20-10, 1-{[(cyclohexyloxy)carbonyl]oxy}ethyl trans-4-[(1R or 1S)-1-(6-{[4-(difluoromethyl)pyridin-2-yl]amino}-4-methyl-2,3′-bipyridin-6′-yl)-1-hydroxyethyl] cyclohexanecarboxylate]: 190 nM; `CC(=O)OC(C)OC(=O)[C@H]1CC[C@H](C(C)(O)c2ccc(-c3cc(C)cc(Nc4cc(C(F)F)ccn4)n3)cn2)CC1` (single isomer, unassigned) [Example 21-2, 1-(acetyloxy)ethyl trans-4-[(1R or 1S)-1-(6-{[4-(difluoromethyl)pyridin-2-yl]amino}-4-methyl-2,3′-bipyridin-6′-yl)-1-hydroxyethyl] cyclohexanecarboxylate]: 4.3 nM.
